Test results taken from patent US8435978B2, “Substituted sulfonamide compounds” (Gruenenthal GmbH, priority 2006, dated 2013).

Columns and labels:
[1] = target: T1, human B1R receptor (Homo sapiens, UniProt P46663); assay: Functional study on the bradykinin receptor 1 (B1R), FLIPR Ca2+ assay, hB1R cells; assay type: cell-based; conditions: agonist Lys-Des-Arg9-bradykinin 0.5 nM, % inhibition compared with the maximum achievable inhibition; for inhibition at 10 µM: CHO-K1, test substance 10 μM, read-out: B1R Antagonism, human [10 μM] % Inhibition; for B1R Antagonism, human [10 μM] % Inhibition: test substance 10 μM, hB1R CHO K1 cells
T1 construct: host or cells: CHO K1 cells (Chinese hamster ovary), stably transfected
T1 sequence (P46663 1-353): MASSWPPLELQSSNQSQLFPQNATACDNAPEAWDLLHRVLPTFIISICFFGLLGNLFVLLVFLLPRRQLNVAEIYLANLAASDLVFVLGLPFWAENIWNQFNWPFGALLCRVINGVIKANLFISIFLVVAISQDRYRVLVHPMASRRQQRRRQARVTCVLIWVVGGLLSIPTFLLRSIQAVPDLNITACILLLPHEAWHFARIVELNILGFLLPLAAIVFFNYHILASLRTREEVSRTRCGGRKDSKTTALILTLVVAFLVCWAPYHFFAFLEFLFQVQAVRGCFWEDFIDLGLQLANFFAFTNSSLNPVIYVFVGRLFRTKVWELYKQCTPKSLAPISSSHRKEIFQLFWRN
Summary of the method: (§1)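 CHO K1 cells stably expressing human or rat B1R were loaded with Fluo-4 and read on a FLIPR (ex 488/em 540 nm, peak fluorescence). Test compounds at 10 μM were added first, then after 10 min agonist: Lys-Des-Arg9-bradykinin 0.5 nM for hB1R, Des-Arg9-bradykinin 100 nM for rB1R; % inhibition versus maximum inhibition.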

[2] = target: T2, B1R receptor of the rat (Rattus norvegicus, UniProt P97583); assay: Functional study on the bradykinin receptor 1 (B1R), FLIPR Ca2+ assay, rB1R cells; assay type: cell-based; conditions: agonist Des-Arg9-bradykinin 100 nM, % inhibition compared with the maximum achievable inhibition; for inhibition at 10 µM: CHO-K1, test substance 10 μM, read-out: B1R Antagonism, rat [10 μM] % Inhibition; for B1R Antagonism, rat [10 μM] % Inhibition: test substance 10 μM, rB1R CHO K1 cells
T2 construct: host or cells: CHO K1 cells (Chinese hamster ovary), stably transfected
T2 sequence (P97583 1-337): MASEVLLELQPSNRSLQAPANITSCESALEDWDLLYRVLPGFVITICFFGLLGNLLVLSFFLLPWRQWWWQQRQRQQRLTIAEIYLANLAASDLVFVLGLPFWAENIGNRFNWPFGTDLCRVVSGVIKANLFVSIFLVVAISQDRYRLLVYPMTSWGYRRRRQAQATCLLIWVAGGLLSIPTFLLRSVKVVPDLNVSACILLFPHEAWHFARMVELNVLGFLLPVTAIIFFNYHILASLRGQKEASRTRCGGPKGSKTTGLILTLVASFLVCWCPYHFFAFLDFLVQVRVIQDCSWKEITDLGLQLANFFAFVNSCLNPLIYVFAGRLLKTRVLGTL
Summary of the method: as §1

| SMILES | inhibition at 10 µM [1] | inhibition at 10 µM [2] | B1R Antagonism, human [10 μM] % Inhibition [1] | B1R Antagonism, rat [10 μM] % Inhibition [2] |
| --- | --- | --- | --- | --- |
| Cc1cc(C)c(S(=O)(=O)N2Cc3ccccc3CC2COCC(=O)N2CCC(N3CCN(C)CC3)CC2)c(C)c1 (stereo not drawn) [Example 292, 2-((2-(mesitylsulfonyl)-1,2,3,4-tetrahydroisoquinolin-3-yl)methoxy)-1-(4-(4-methylpiperazin-1-yl)piperidin-1-yl)ethanone] | 106% | 99.2% | – | – |
| O=C(COCC1CCCCN1S(=O)(=O)c1ccc(Cl)c(Cl)c1)Nc1cccc(CN2CCCC2)c1 (stereo not drawn) [Example 293, 2-((1-(3,4-dichlorophenylsulfonyl)piperidin-2-yl)methoxy)-N-(3-(pyrrolidin-1-ylmethyl)phenyl)acetamide] | 90.5% | -6.96% | – | – |
| O=C(COCC1CCCN1S(=O)(=O)c1c(Cl)cc(Cl)cc1Cl)N1CCC(N2CCCCC2)CC1 (stereo not drawn) [Example 298, 1-(1,4′-bipiperidin-1-yl)-2-((1-(2,4,6-trichlorophenylsulfonyl)pyrrolidin-2-yl)methoxy)ethanone] | – | – | 105.09% | 103.58% |
| COc1cc(C)c(S(=O)(=O)N2CCCC2COCC(=O)NCC2CCCN(Cc3ccccc3)C2)c(C)c1 (stereo not drawn) [Example 300, N-((1-benzylpiperidin-3-yl)methyl)-2-((1-(4-methoxy-2,6-dimethylphenylsulfonyl)pyrrolidin-2-yl)methoxy)acetamide] | 106% | 103% | – | – |
| COc1cc(C)c(S(=O)(=O)N2CCCC2COCC(=O)NCc2ccc(N3CCN(C)CC3)cc2)c(C)c1 (stereo not drawn) [Example 302, 2-((1-(4-methoxy-2,6-dimethylphenylsulfonyl)pyrrolidin-2-yl)methoxy)-N-(4-(4-methylpiperazin-1-yl)benzyl)acetamide] | – | – | 100.69% | 102.41% |
| COc1cc(C)c(S(=O)(=O)N2CCCC2COCC(=O)N(C)[C@H]2CCN(Cc3ccccc3)C2)c(C)c1 (stereo partly drawn) [Example 303, N—((S)-1-benzylpyrrolidin-3-yl)-2-((1-(4-methoxy-2,6-dimethylphenylsulfonyl)pyrrolidin-2-yl)methoxy)-N-methylacetamide] | 106% | 100% | – | – |
| COc1cc(C)c(S(=O)(=O)N2CCCC2COCC(=O)N(C)C(CN2CCOCC2)c2ccccc2)c(C)c1 (stereo not drawn) [Example 304, 2-((1-(4-methoxy-2,6-dimethylphenylsulfonyl)pyrrolidin-2-yl)methoxy)-N-methyl-N-(2-morpholino-1-phenylethyl)acetamide] | 71.1% | 102% | – | – |
| COc1cccc(N2CCN(C(=O)COCC3CCCN3S(=O)(=O)c3c(C)cc(OC)cc3C)CC2)c1 (stereo not drawn) [Example 306, 2-((1-(4-methoxy-2,6-dimethylphenylsulfonyl)pyrrolidin-2-yl)methoxy)-1-(4-(3-methoxyphenyl)piperazin-1-yl)ethanone] | 104% | 99.2% | – | – |
| COc1ccc(N2CCN(C(=O)COCC3CCCN3S(=O)(=O)c3c(C)cc(OC)cc3C)CC2)cc1 (stereo not drawn) [Example 308, 2-((1-(4-methoxy-2,6-dimethylphenylsulfonyl)pyrrolidin-2-yl)methoxy)-1-(4-(4-methoxyphenyl)piperazin-1-yl)ethanone] | 105% | 101% | – | – |
| COc1cc(C)c(S(=O)(=O)N2CCCC2COCC(=O)N2CCN(c3ncccn3)CC2)c(C)c1 (stereo not drawn) [Example 309, 2-((1-(4-methoxy-2,6-dimethylphenylsulfonyl)pyrrolidin-2-yl)methoxy)-1-(4-(pyrimidin-2-yl)piperazin-1-yl)ethanone] | 52% | 101% | – | – |
| COc1cc(C)c(S(=O)(=O)N2CCCC2COCC(=O)N2CCN(CCc3ccccc3)CC2)c(C)c1 (stereo not drawn) [Example 310, 2-((1-(4-methoxy-2,6-dimethylphenylsulfonyl)pyrrolidin-2-yl)methoxy)-1-(4-phenethylpiperazin-1-yl)ethanone] | 106% | 102% | – | – |
| COc1cc(C)c(S(=O)(=O)N2CCCC2COCC(=O)N2CCN(c3cc(Cl)ccc3C)CC2)c(C)c1 (stereo not drawn) [Example 311, 1-(4-(5-chloro-2-methylphenyl)piperazin-1-yl)-2-((1-(4-methoxy-2,6-dimethylphenylsulfonyl)pyrrolidin-2-yl)methoxy)ethanone] | 94.9% | 103% | – | – |
| COc1cc(C)c(S(=O)(=O)N2CCCC2COCC(=O)N2CCN(c3ncccc3C#N)CC2)c(C)c1 (stereo not drawn) [Example 312, 2-(4-(2-((1-(4-methoxy-2,6-dimethylphenylsulfonyl)pyrrolidin-2-yl)methoxy)acetyl)piperazin-1-yl)nicotinonitrile] | 98.5% | 98.7% | – | – |
| O=C(COCC1CCCCN1S(=O)(=O)c1c(Cl)cccc1Cl)NCc1ccc(CN2CCCC2)cc1 (stereo not drawn) [Example 313, 2-((1-(2,6-dichlorophenylsulfonyl)piperidin-2-yl)methoxy)-N-(4-(pyrrolidin-1-ylmethyl)benzyl)acetamide] | 103% | 103% | – | – |

Now from value to compound:

| inhibition at 10 µM [1] | inhibition at 10 µM [2] | B1R Antagonism, human [10 μM] % Inhibition [1] | B1R Antagonism, rat [10 μM] % Inhibition [2] | SMILES |
| --- | --- | --- | --- | --- |
| 96.7% | 103% | – | – | CCN1CCN(C(=O)COCC2CCCN2S(=O)(=O)c2c(Cl)cc(Cl)cc2Cl)CC1 (stereo not drawn) [Example 295, 1-(4-ethylpiperazin-1-yl)-2-((1-(2,4,6-trichlorophenylsulfonyl)pyrrolidin-2-yl)methoxy)ethanone] |
| 106% | 99.3% | – | – | O=C(COCC1CCCN1S(=O)(=O)c1c(Cl)cc(Cl)cc1Cl)N1CCC(N2CCCC2)CC1 (stereo not drawn) [Example 296, 1-(4-(pyrrolidin-1-yl)piperidin-1-yl)-2-((1-(2,4,6-trichlorophenylsulfonyl)pyrrolidin-2-yl)methoxy)ethanone] |
| 106% | 103% | – | – | O=C(COCC1CCCN1S(=O)(=O)c1c(Cl)cc(Cl)cc1Cl)N1CCC(N2CCOCC2)CC1 (stereo not drawn) [Example 297, 1-(4-morpholinopiperidin-1-yl)-2-((1-(2,4,6-trichlorophenylsulfonyl)pyrrolidin-2-yl)methoxy)ethanone] |
| 106% | 103% | – | – | COc1cc(C)c(S(=O)(=O)N2CCCC2COCC(=O)NCc2ccc(CN3CCCC3)cc2)c(C)c1 (stereo not drawn) [Example 299, 2-((1-(4-methoxy-2,6-dimethylphenylsulfonyl)pyrrolidin-2-yl)methoxy)-N-(4-(pyrrolidin-1-ylmethyl)benzyl)acetamide] |
| 106% | 101% | – | – | COc1cc(C)c(S(=O)(=O)N2CCCC2COCC(=O)Nc2ccc(N3CCN(C)CC3)cc2)c(C)c1 (stereo not drawn) [Example 301, 2-((1-(4-methoxy-2,6-dimethylphenylsulfonyl)pyrrolidin-2-yl)methoxy)-N-(4-(4-methylpiperazin-1-yl)phenyl)acetamide] |
| 76.4% | 95.5% | – | – | COc1cc(C)c(S(=O)(=O)N2CCCC2COCC(=O)N2CCN(c3ccccn3)CC2)c(C)c1 (stereo not drawn) [Example 305, 2-((1-(4-methoxy-2,6-dimethylphenylsulfonyl)pyrrolidin-2-yl)methoxy)-1-(4-(pyridin-2-yl)piperazin-1-yl)ethanone] |
| 105% | 98.4% | – | – | COc1cc(C)c(S(=O)(=O)N2CCCC2COCC(=O)N2CCN(c3ccc(F)cc3)CC2)c(C)c1 (stereo not drawn) [Example 307, 1-(4-(4-fluorophenyl)piperazin-1-yl)-2-((1-(4-methoxy-2,6-dimethylphenylsulfonyl)pyrrolidin-2-yl)methoxy)ethanone] |
